These are literature values, as cited in paper PMC6974622, “DeepMalaria: Artificial Intelligence Driven Discovery of Potent Antiplasmodials” (Frontiers in Pharmacology, 2020).

Where “and” joins values, the source holds several entries; their conditions need not be identical. Identical values can stand only once. Counter-ions that a name gives are not always drawn.

The first data set deals with 3D7. Further details: unit not given here. The following applies: cited from earlier work.
Turning to Phenylmercuric acetate, the 3D7 was 97.7.
For `O=P1(N(CCCl)CCCl)NCCCO1` (centres unmarked) [Cyclophosphamide], the 3D7 is listed as 56.2.
Turning to `COc1cc2ncnc(Nc3ccc(F)c(Cl)c3)c2cc1OCCCN1CCOCC1` [Geftinib], the 3D7 is on record as 67.6.
Turning to `COC(=O)C1=C(C)NC(C)=C(C(=O)OCCCN2CCC(c3ccccc3)(c3ccccc3)CC2)[C@H]1c1cccc([N+](=O)[O-])c1` [Niguldipine], the 3D7 is listed as 89.3.

The same data set, now with this note: repurposing dataset, 179 approved drugs; ref https://www.nature.com/articles/nchembio806; cited from earlier work.
On to `Oc1ccc(CCN2CCC(Nc3nc4ccccc4n3Cc3ccc(F)cc3)CC2)cc1` [Desmethylastemizole], for which the 3D7 is on record as 96.7.
Regarding `COc1ccc(C[C@H]2NC[C@H](O)[C@H]2OC(C)=O)cc1` [Anisomycin], the 3D7 is reported as 97.
With `CC[n+]1c(-c2ccccc2)c2cc(N)ccc2c2ccc(N)cc21` [Homidium bromide], the 3D7 is on record as 98.9.
`Nc1ccc2cc3ccc(N)cc3nc2c1` [Proflavine]: the 3D7 is listed as 96.2.
On to `CN1CCC[C@@H]1CCO[C@](C)(c1ccccc1)c1ccc(Cl)cc1` [Clemastine], for which the 3D7 is on record as 96.5.
Turning to `CC[C@]1(O)C[C@H]2CN(CCc3c([nH]c4ccccc34)[C@@](C(=O)OC)(c3cc4c(cc3OC)N(C=O)[C@H]3[C@@](O)(C(=O)OC)[C@H](OC(C)=O)[C@]5(CC)C=CCN6CC[C@]43[C@@H]65)C2)C1` [Vincristine], the 3D7 is reported as 69.5.
Take `CCCCCCCCCCCCCCCC[N+](C)(C)CCN(Cc1ccc(OC)cc1)c1ncccn1` [Thonzonium bromide]: the 3D7 is 97.5.
For the compound `C=C[C@H]1C[N@@]2CC[C@H]1C[C@@H]2[C@@H](O)c1ccnc2ccc(OC)cc12` [Quinidine], the 3D7 is on record as 88.5.
For the compound `CN1[C@@H]2CC[C@H]1C[C@@H](OC(c1ccccc1)c1ccccc1)C2` [Benztropine mesylate], the 3D7 was 70.6.
With `C=C[C@H]1CN2CC[C@H]1C[C@H]2[C@H](OC(=O)OCC)c1ccnc2ccc(OC)cc12` [Quinine ethyl carbonate], the 3D7 was 94.5.
Take `CN(C)CCOC(c1ccccc1)c1ccc(Br)cc1` (centres unmarked) [Bromodiphenhydramine]: the 3D7 is 64.2.
In the case of `CC[C@@H](C(=O)[C@@H](C)[C@@H](O)[C@H](C)[C@@H]1O[C@@H]([C@@H](CC)C(=O)O)CC[C@@H]1C)[C@H]1O[C@]2(C=C[C@@H](O)[C@]3(CC[C@@](C)([C@H]4CC[C@](O)(CC)[C@H](C)O4)O3)O2)[C@H](C)C[C@@H]1C` [Salinomycin], the 3D7 was 99.1.
For the compound `CN1CCC(=C2c3ccccc3Sc3ccccc32)CC1` [Pimethixene], the 3D7 is listed as 75.5.
Consider `CC(=O)c1ccc2c(c1)N(CCCN1CCC(CCO)CC1)c1ccccc1S2` [Piperacetazine], for which the 3D7 is recorded as 88.5.
Regarding `C[C@@H]1C[C@@H]([C@H](O)CC2CC(=O)NC(=O)C2)C(=O)[C@@H](C)C1` [Cycloheximide], the 3D7 is recorded as 97.7.
In the case of `CCC(=O)c1ccc2c(c1)N(CC(C)N(C)C)c1ccccc1S2.O=C(O)/C=C\C(=O)O` (centres unmarked) [Propiomazine maleate], the 3D7 is recorded as 77.
For the compound `CC(=O)[C@]1(O)Cc2c(O)c3c(c(O)c2[C@@H](O[C@H]2C[C@H](N)[C@H](O)[C@H](C)O2)C1)C(=O)c1ccccc1C3=O` [Idarubicin], the 3D7 is on record as 98.9.
As to `CN1C[C@H](C(=O)N[C@]2(C)O[C@@]3(O)[C@@H]4CCCN4C(=O)[C@H](Cc4ccccc4)N3C2=O)C[C@@H]2c3cccc4[nH]cc(c34)C[C@H]21` [Dihydroergotamine mesylate], the 3D7 was 88.1.
As to `C[C@@H]1[C@H](O)[C@@H](C)/C=C/C=C/C=C/C=C/C=C/C=C/C=C/[C@H](O[C@@H]2O[C@H](C)[C@@H](O)[C@H](N)[C@@H]2O)C[C@@H]2O[C@](O)(C[C@@H](O)C[C@@H](O)[C@H](O)CC[C@@H](O)C[C@@H](O)CC(=O)O[C@H]1C)C[C@H](O)[C@H]2C(=O)O` [Amphotericin B], the 3D7 is recorded as 59.2.
As for `CCCCCCCCCCCCCCCC[n+]1ccccc1` [Cetylpyridinium chloride], the 3D7 is 98.6.
Turning to `Cc1nc2n(c(=O)c1CCN1CCC(c3noc4cc(F)ccc34)CC1)CCCC2` [Risperidone], the 3D7 is listed as 67.5.
With Corticotropin A, the 3D7 is recorded as 86.4.
Turning to Carboplatin, the 3D7 is 76.4.
As for `CN(C)C(=S)SSC(=S)N(C)C` [Thiram], the 3D7 was 96.7.
In the case of `Nc1nc2nc[nH]c2c(=S)[nH]1` [Thioguanine], the 3D7 is recorded as 68.7.
As to `CCCCC(CC)CN1CN(CC(CC)CCCC)CC(C)(N)C1` (centres unmarked) [Hexetidine], the 3D7 is 86.2.
As to `COc1cccc2c1C(=O)c1c(O)c3c(c(O)c1C2=O)C[C@@](O)(C(=O)CO)C[C@@H]3O[C@H]1C[C@H](N)[C@H](O)[C@H](C)O1` [Doxorubicin], the 3D7 is 99.5.
Turning to `Nc1ccn([C@@H]2O[C@H](CO)[C@@H](O)C2(F)F)c(=O)n1` [Gemcitabine], the 3D7 is on record as 75.3.
As to `CCCCCCc1ccc(O)cc1O.Nc1c2ccccc2nc2ccccc12` [Acrisorcin], the 3D7 is reported as 98.4.
For the compound `CCCCCCCCCCCC[N+](C)(C)Cc1ccccc1` [Benzododecinium chloride], the 3D7 is listed as 99.9.
As for Heparin, the 3D7 is 79.9.
With `C=CC(=O)O` [Acrylic acid], the 3D7 is listed as 68.8.
Turning to `C[n+]1c2cc(N)ccc2cc2ccc(N)cc21.Nc1ccc2cc3ccc(N)cc3nc2c1.[Cl-]` [Acriflavine], the 3D7 was 98.2 and 99.
Regarding `CO[C@H]1/C=C\O[C@@]2(C)Oc3c(C)c(O)c4c(O)c(c(C=O)c(O)c4c3C2=O)NC(=O)/C(C)=C\C=C/[C@H](C)[C@H](O)[C@@H](C)[C@@H](O)[C@@H](C)[C@H](OC(C)=O)[C@@H]1C` [3-formyl rifamycin], the 3D7 is given as 99.
On to `CC(C)N1CCN(c2ccc(OCC3COC(Cn4cncn4)(c4ccc(Cl)cc4Cl)O3)cc2)CC1` (centres unmarked) [Terconazole], for which the 3D7 is listed as 56.
Turning to `CC(=O)[O][Pt]([NH2])([Cl])([Cl])([NH]C1CCCCC1)[O]C(C)=O` [Satraplatin], the 3D7 was 87.3.
Take Plicamycin: the 3D7 was 98.2.
For the compound `CN(CCCCCCCCCCN(C)C(=O)Oc1cccc([N+](C)(C)C)c1)C(=O)Oc1cccc([N+](C)(C)C)c1` [Demecarium bromide], the 3D7 was 95.9.
Turning to `CC(=O)O[C@H]1C(=O)[C@@]2(C)[C@H]([C@H](OC(=O)c3ccccc3)[C@]3(O)C[C@H](OC(=O)[C@H](O)[C@@H](NC(=O)c4ccccc4)c4ccccc4)C(C)=C1C3(C)C)[C@]1(OC(C)=O)CO[C@@H]1C[C@@H]2O` [Paclitaxel], the 3D7 is 84.5.
For `O.O.O.O=C([O-])[C@H]([O-])[C@@H]([O-])C(=O)[O-].O=C([O-])[C@H]([O-])[C@@H]([O-])C(=O)[O-].[K+].[K+].[Sb+3].[Sb+3]` [Potassium antimonyl tartrate], the 3D7 was 95.5.
For `COc1c(C)c2c(c(O)c1C/C=C(\C)CCC(=O)O)C(=O)OC2` [Mycophenolic acid], the 3D7 was 92.7.
Take `CCN(CC)CCCC(C)Nc1c2ccc(Cl)cc2nc2ccc(OC)cc12` (centres unmarked) [Quinacrine]: the 3D7 was 99.2.
Consider `COc1cc(NC(C)CCCN)c2ncccc2c1` (centres unmarked) [Primaquine], for which the 3D7 was 99.1.
For the compound `CC(C(O)c1ccc(O)cc1)N1CCC(Cc2ccccc2)CC1` (centres unmarked) [Ifenprodil], the 3D7 was 82.3.
Consider `CCN(CC)CCCC(C)Nc1ccnc2cc(Cl)ccc12` (centres unmarked) [Chloroquine diphosphate], for which the 3D7 is 97.3.
`COc1ccc(CCN2CCC(Nc3nc4ccccc4n3Cc3ccc(F)cc3)CC2)cc1` [Astemizole]: the 3D7 is on record as 97.6.
For `CCCCC(CC)CNC(=N)NC(=N)NCCCCCCNC(=N)NC(=N)NCC(CC)CCCC` (centres unmarked) [Alexidine], the 3D7 was 99.5.
As to `CC(=O)O[C@H]1C[C@@H]2CC[C@@H]3[C@H](CC[C@@]4(C)[C@H]3C[C@H]([N+]3(C)CCCCC3)[C@@H]4OC(C)=O)[C@@]2(C)C[C@@H]1[N+]1(C)CCCCC1` [Pancuronium bromide], the 3D7 is reported as 52.6.
As for `CC[C@@H](C(=O)[C@@H](C)[C@@H](O)[C@H](C)CCc1ccc(C)c(O)c1C(=O)O)[C@H]1O[C@](CC)([C@H]2CC[C@](O)(CC)[C@H](C)O2)C[C@@H]1C` [Lasalocid A], the 3D7 was 98.2.
For `O=[N+]([O-])c1ccc(O)c2ncccc12` [Nitroxoline], the 3D7 is 97.2.
With `COc1ccc(CCN(C)CCCC(C#N)(c2ccc(OC)c(OC)c2)C(C)C)cc1OC` (centres unmarked) [Verapamil], the 3D7 is 98.
Turning to `C[N+](C)(CCOc1ccccc1)Cc1ccccc1.O=C(O)c1cc2ccccc2cc1[O-]` [Bephenium hydroxynaphthoate], the 3D7 is 70.2.
`C=C[C@H]1CN2CC[C@H]1C[C@H]2[C@H](O)c1ccnc2ccccc12` [Cinchonidine]: the 3D7 is 97.
Consider `Oc1ccc(Cl)c2cccnc12` [Cloxyquin], for which the 3D7 was 83.6.
Regarding `C[C@H]1[C@H](OC(=O)CCC(=O)O)O[C@@H]2O[C@@]3(C)CC[C@H]4[C@H](C)CC[C@@H]1[C@@]24OO3` [Artesunate], the 3D7 is listed as 98.7.
With `CC(C)(C)CC(C)(C)c1ccc(OCCOCC[N+](C)(C)Cc2ccccc2)cc1` [Benzethonium chloride], the 3D7 is 98.6.
`COc1cccc2c1C(=O)c1c(O)c3c(c(O)c1C2=O)C[C@@](O)(C(C)=O)C[C@@H]3O[C@H]1C[C@H](N)[C@H](O)[C@H](C)O1` [Daunorubicin]: the 3D7 is 99.6.
Take `NC1CCN(c2c(F)cc3c(=O)c(C(=O)O)cn(C4CC4)c3c2Cl)C1` (centres unmarked) [Clinafloxacin]: the 3D7 is recorded as 79.3.
Take `CC(C)NCC(O)c1ccc2ccccc2c1` (centres unmarked) [Pronetalol]: the 3D7 is 95.3.
Consider `CC/C(=C(/CC)c1ccc(O)cc1)c1ccc(O)cc1` [Diethylstilbestrol], for which the 3D7 is recorded as 57.3.
On to `CCCCCCCCCCCCCCCC[N+](C)(C)Cc1ccccc1` [Cetalkonium chloride], for which the 3D7 is recorded as 74.2.
For Doxycycline, the 3D7 was 59.7.
Consider `O=c1[nH]c2ccccc2n1CCCN1CCC(n2c(=O)[nH]c3cc(Cl)ccc32)CC1` [Domperidone], for which the 3D7 is reported as 82.2.
In the case of `O=c1[nH]cc(F)c(=O)[nH]1` [Fluorouracil], the 3D7 is 89.2.
